# Experimental data reported in patent publication US10052331B2, “3-(3H-imidazo[4,5-C]pyridin-2-yl)-1H-pyrazolo[3,4-C]pyridine and therapeutic uses thereof” (Samumed, LLC, priority 2014, dated 2018).
# Assays:
# [1] = test system: Wnt activity (Wnt-responsive Sp5 promoter-luciferase reporter in SW480 cells); test: Wnt activity screening assay: Sp5-Luc reporter gene in SW480 colon carcinoma cells; format: cell-based; conditions: Homo sapiens
# Text: The screening assay for Wnt activity is described as follows. Reporter cell lines can be generated by stably transducing cancer cell lines (e.g., colon cancer) or primary cells (e.g., IEC-6 intestinal cells) with a lentiviral construct that includes a Wnt-responsive promoter driving expression of the firefly luciferase gene.
# SW480 colon carcinoma cells were transduced with a lentiviral vector expressing luciferase with a human Sp5 promoter consisting of a sequence of eight TCF/LEF binding sites. SW480 cells stably expressing the Sp5-Luc reporter gene and a hygromycin resistance gene were selected by treatment with 150 μg/ml of hygromycin for 7 days. These stably transduced SW480 cells were expanded in cell culture and used for all further screening activities. For Sp5-Luc reporter gene assays, the cells were plated at 10,000 cells/well in 96-well plates with growth medium containing 10% fetal calf serum and incubated overnight at 37° C. and 5% CO2. Each compound was dissolved in DMSO as a 10 mM stock in standard j-vials and used to prepare compound source plates in dose-response format with 3-fold serial dilutions and a 10 mM top concentration. Compound transfer from serially diluted source plates to assay plates containing the cells was accomplished using a pintool (Multimek 96, Beckman equipped with V&P Scientific FP1S50H pins) based liquid handling protocol. This protocol used a slotted pin to transfer 50 nl of compound from a source plate well to an assay plate well containing 50 μl of cells in growth medium. […] Control wells received 50 nl of DMSO treatment for normalization and calculating IC50 values. The treated cells were incubated at 37° C. and 5% CO2 for an additional forty-two hours. Following incubation, the growth medium was removed and 50 μl of BrightGlo luminescence reagent (Promega) was added to each well of the 96-well assay plates. The plates were placed on an orbital shaker for 5 min and then luminescence was quantified on the Victor3 (Perkin Elmer) plate reader. Readings were normalized to DMSO only treated cells, and normalized activities were utilized for IC50 calculations using the dose-response log (inhibitor) vs. response-variable slope (four parameters) nonlinear regression feature available in GraphPad Prism 5.0 or 6.0.
# [2] = test system: primary human fibroblasts derived from IPF patients (LL29 cells); test: Inhibition of fibrotic process: αSMA staining in TGF-β1-treated primary human fibroblasts from IPF patients (LL29 cells); format: cell-based; conditions: Fibroblast, 96 h, LL29 cells treated with TGF-β1 (20 ng/mL), 4 days, 11-point dose-response from 10 μM to 1.87 nM, read-out: Inhibition of fibrosis EC50
# Text: The above synthesized compounds were screened using primary human fibroblasts (derived from IPF patients) treated with TGF-β1 to determine their ability to inhibit the fibrotic process.
# Primary human fibroblasts derived from IPF patients (LL29 cells) [^1Xiaoqiu Liu, et. al., “Fibrotic Lung Fibroblasts Show Blunted Inhibition by cAMP Due to Deficient cAMP Response Element-Binding Protein Phosphorylation”, Journal of Pharmacology and Experimental Therapeutics (2005), 315(2), 678-687; ^2Watts, K. L., et. al., “RhoA signaling modulates cyclin D1 expression in human lung fibroblasts; implications for idiopathic pulmonary fibrosis”, Respiratory Research (2006), 7(1), 88] were obtained from American Type Culture Collection (ATCC) and expanded in F12 medium supplemented with 15% Fetal Bovine Serum and Penicillin/Streptomycin.
# Each compound was dissolved in DMSO as a 10 mM stock and used to prepare compound source plates. Serial dilution (1:2, 11-point dose-response curves from 10 μM to 1.87 nM) and compound transfer was performed using the ECHO 550 (Labcyte, Sunnyvale, Calif.) into 384-well clear bottom assay plates (Greiner Bio-One) with appropriate DMSO backfill for a final DMSO concentration of 0.1%. LL29 cells were plated at 1,500 cells/well in 80 μl/well F12 medium supplemented with 1% Fetal Bovine Serum. One hour after addition of the cells, TGF-β1 (Peprotech; 20 ng/mL) was added to the plates to induce fibrosis (ref. 1 and 2 above). Wells treated with TGF-β1 and containing DMSO were used as controls. Cells were incubated at 37° C. and 5% CO2 for 4 days. Following incubation for 4 days, SYTOX green nucleic acid stain (Life Technologies [Thermo Fisher Scientific]) was added to the wells at a final concentration of 1 uM and incubated at room temperature for 30 min. Cells were then fixed using 4% formaldehyde (Electron Microscopy Sciences), washed 3 times with PBS followed by blocking and permeabilization using 3% Bovine Serum Albumin (BSA; Sigma) and 0.3% Triton X-100 (Sigma) in PBS. Cells were then stained with antibody specific to α-smooth muscle actin (αSMA; Abcam) (ref. 1 and 2 above) in 3% Bovine Serum Albumin (BSA; Sigma) and 0.3% Triton X-100 (Sigma) in PBS, and incubated overnight at 4° C. Cells were then washed 3 times with PBS, followed by incubation with Alexa Flor-647 conjugated secondary antibody (Life Technologies [Thermo Fisher Scientific]) and DAPI at room temperature for 1 hour. Cells were then washed 3 times with PBS and plates were sealed for imaging. αSMA staining was imaged by excitation at 630 nm and emission at 665 nm and quantified using the Compartmental Analysis program on the CellInsight CX5 (Thermo Scientific). Dead or apoptotic cells were excluded from analysis based on positive SYTOX green staining. % of total cells positive for αSMA were counted in each well and normalized to the average of 11 wells treated with TGF-β1 on the same plate using Dotmatics' Studies Software. The normalized averages (fold change over untreated) of 3 replicate wells for each compound concentration were used to create dose-responses curves and EC50 values were calculated using non-linear regression curve fit in the Dotmatics' Studies Software. The EC50 values are reported.
Structure (SMILES),IC50 [1],EC50 [2]
"CC(C)(C)C(=O)Nc1cncc(-c2cc3c(-c4nc5c(-c6cccc(F)c6)cncc5[nH]4)n[nH]c3cn2)c1 [Compound 8, N-(5-(3-(7-(3-Fluorophenyl)-3H-imidazo[4,5-c]pyridin-2-yl)-1H-pyrazolo[3,4-c]pyridin-5-yl)pyridin-3-yl)pivalamide]",41.1 nM,47 nM
"CCCCC(=O)Nc1cncc(-c2cc3c(-c4nc5c(-c6cccc(F)c6)cncc5[nH]4)n[nH]c3cn2)c1 [Compound 18, N-(5-(3-(7-(3-Fluorophenyl)-3H-imidazo[4,5-c]pyridin-2-yl)-1H-pyrazolo[3,4-c]pyridin-5-yl)pyridin-3-yl)pentanamide]",29.4 nM,143 nM
"CC(C)(C)C(=O)Nc1cncc(-c2cc3c(-c4nc5c(-c6ccccc6F)cncc5[nH]4)n[nH]c3cn2)c1 [Compound 60, N-(5-(3-(7-(2-Fluorophenyl)-3H-imidazo[4,5-c]pyridin-2-yl)-1H-pyrazolo[3,4-c]pyridin-5-yl)pyridin-3-yl)pivalamide]",47 nM,≥ 9990 nM
"CCCC(=O)Nc1cncc(-c2cc3c(-c4nc5c(-c6ccccc6F)cncc5[nH]4)n[nH]c3cn2)c1 [Compound 69, N-(5-(3-(7-(2-Fluorophenyl)-3H-imidazo[4,5-c]pyridin-2-yl)-1H-pyrazolo[3,4-c]pyridin-5-yl)pyridin-3-yl)butyramide]",70.3 nM,44 nM
"O=C(Nc1cncc(-c2cc3c(-c4nc5c(-c6ccccc6F)cncc5[nH]4)n[nH]c3cn2)c1)C1CCC1 [Compound 72, N-(5-(3-(7-(2-Fluorophenyl)-3H-imidazo[4,5-c]pyridin-2-yl)-1H-pyrazolo[3,4-c]pyridin-5-yl)pyridin-3-yl)cyclobutanecarboxamide]",144 nM,≤ 9 nM
"O=C(Nc1cncc(-c2cc3c(-c4nc5c(-c6ccccc6F)cncc5[nH]4)n[nH]c3cn2)c1)C1CCCC1 [Compound 73, N-(5-(3-(7-(2-Fluorophenyl)-3H-imidazo[4,5-c]pyridin-2-yl)-1H-pyrazolo[3,4-c]pyridin-5-yl)pyridin-3-yl)cyclopentanecarboxamide]",156 nM,4330 nM
"CCC(=O)Nc1cncc(-c2cc3c(-c4nc5c(-c6cccnc6)cncc5[nH]4)n[nH]c3cn2)c1 [Compound 79, N-(5-(3-(7-(Pyridin-3-yl)-3H-imidazo[4,5-c]pyridin-2-yl)-1H-pyrazolo[3,4-c]pyridin-5-yl)pyridin-3-yl)propionamide]",> 10000 nM,18 nM
"c1cncc(-c2cc3c(-c4nc5c(-c6cccnc6)cncc5[nH]4)n[nH]c3cn2)c1 [Compound 82, 5-(Pyridin-3-yl)-3-(7-(pyridin-3-yl)-3H-imidazo[4,5-c]pyridin-2-yl)-1H-pyrazolo[3,4-c]pyridine]",> 10000 nM,≥ 9990 nM
"c1ccc(CNCc2cncc(-c3cc4c(-c5nc6c(-c7cccnc7)cncc6[nH]5)n[nH]c4cn3)c2)cc1 [Compound 101, N-Benzyl-1-(5-(3-(7-(pyridin-3-yl)-3H-imidazo[4,5-c]pyridin-2-yl)-1H-pyrazolo[3,4-c]pyridin-5-yl)pyridin-3-yl)methanamine]",294 nM,≥ 9990 nM

# Now from value to molecule, other results behind:
IC50 [1],Structure (SMILES),EC50 [2]
71.8 nM,"CN(C)c1cncc(-c2cc3c(-c4nc5c(-c6cccc(F)c6)cncc5[nH]4)n[nH]c3cn2)c1 [Compound 7, 5-(3-(7-(3-Fluorophenyl)-3H-imidazo[4,5-c]pyridin-2-yl)-1H-pyrazolo[3,4-c]pyridin-5-yl)-N,N-dimethylpyridin-3-amine]",≤ 9 nM
80.1 nM,"CN(C)Cc1cncc(-c2cc3c(-c4nc5c(-c6cccc(F)c6)cncc5[nH]4)n[nH]c3cn2)c1 [Compound 13, 1-(5-(3-(7-(3-Fluorophenyl)-3H-imidazo[4,5-c]pyridin-2-yl)-1H-pyrazolo[3,4-c]pyridin-5-yl)pyridin-3-yl)-N,N-dimethylmethanamine]",≤ 9 nM
31.1 nM,"Fc1cccc(-c2cncc3[nH]c(-c4n[nH]c5cnc(-c6cncc(CN7CCC(F)(F)C7)c6)cc45)nc23)c1 [Compound 25, 5-(5-((3,3-Difluoropyrrolidin-1-yl)methyl)pyridin-3-yl)-3-(7-(3-fluorophenyl)-3H-imidazo[4,5-c]pyridin-2-yl)-1H-pyrazolo[3,4-c]pyridine]",≤ 9 nM
1060 nM,"Fc1ccc(-c2cncc3[nH]c(-c4n[nH]c5cnc(-c6cncc(CN7CCCC7)c6)cc45)nc23)cc1 [Compound 40, 3-(7-(4-Fluorophenyl)-3H-imidazo[4,5-c]pyridin-2-yl)-5-(5-(pyrrolidin-1-ylmethyl)pyridin-3-yl)-1H-pyrazolo[3,4-c]pyridine]",1770 nM
76.7 nM,"CCCC(=O)Nc1cncc(-c2cc3c(-c4nc5c(-c6ccc(F)cc6)cncc5[nH]4)n[nH]c3cn2)c1 [Compound 43, N-(5-(3-(7-(4-Fluorophenyl)-3H-imidazo[4,5-c]pyridin-2-yl)-1H-pyrazolo[3,4-c]pyridin-5-yl)pyridin-3-yl)butyramide]",76 nM
164 nM,"CCCCC(=O)Nc1cncc(-c2cc3c(-c4nc5c(-c6ccc(F)cc6)cncc5[nH]4)n[nH]c3cn2)c1 [Compound 44, N-(5-(3-(7-(4-Fluorophenyl)-3H-imidazo[4,5-c]pyridin-2-yl)-1H-pyrazolo[3,4-c]pyridin-5-yl)pyridin-3-yl)pentanamide]",75 nM
179 nM,"Fc1ccc(-c2cncc3[nH]c(-c4n[nH]c5cnc(-c6cncnc6)cc45)nc23)cc1 [Compound 52, 3-(7-(4-Fluorophenyl)-3H-imidazo[4,5-c]pyridin-2-yl)-5-(pyrimidin-5-yl)-1H-pyrazolo[3,4-c]pyridine]",1200 nM
70.4 nM,"Nc1cncc(-c2cc3c(-c4nc5c(-c6ccccc6F)cncc5[nH]4)n[nH]c3cn2)c1 [Compound 55, 5-(3-(7-(2-Fluorophenyl)-3H-imidazo[4,5-c]pyridin-2-yl)-1H-pyrazolo[3,4-c]pyridin-5-yl)pyridin-3-amine]",≤ 9 nM
40.2 nM,"CCNCc1cncc(-c2cc3c(-c4nc5c(-c6ccccc6F)cncc5[nH]4)n[nH]c3cn2)c1 [Compound 58, N-((5-(3-(7-(2-Fluorophenyl)-3H-imidazo[4,5-c]pyridin-2-yl)-1H-pyrazolo[3,4-c]pyridin-5-yl)pyridin-3-yl)methyl)ethanamine]",41 nM
2850 nM,"c1cncc(-c2cncc3[nH]c(-c4n[nH]c5cnc(-c6cncc(CN7CCCCC7)c6)cc45)nc23)c1 [Compound 93, 5-(5-(Piperidin-1-ylmethyl)pyridin-3-yl)-3-(7-(pyridin-3-yl)-3H-imidazo[4,5-c]pyridin-2-yl)-1H-pyrazolo[3,4-c]pyridine]",≥ 9990 nM
